{
  "source": "patent US20220025036A1",
  "about": "“USE OF IL-1BETA BINDING ANTIBODIES” (NOVARTIS AG, priority 2018, published 2022)",
  "key": {"LL2": {"test_system": "LL2", "assay": "Anti-IL-1β in combination with docetaxel in aggressive lung model (LL2)", "type": "in vivo, mouse", "conditions": "LL2, FIG. 15A"}, "4T1 tumors [1]": {"test_system": "4T1 tumors", "assay": "4T1 tumors treated with 01BSUR and docetaxel, tumor burden", "type": "in vivo, mouse", "conditions": "4T1 s.c., treated days 8 and 15 post implant", "protocol": "FIG. 16. Mice were implanted with 4T1 cells sc and treated with the indicated treatments on days 8 and 15 post tumor implant. There were 10 mice in each group.\n(§1) Female Balb/c mice with 4T1 tumors implanted subcutaneously (s.c.) on the right flank were treated 8 and 15 days post-tumor implant initiating when the tumors reached about 100 mm^3 with the isotype antibody, docetaxel, 01BSUR, or a combination of docetaxel and 01BSUR. […] 5 days after the first dose, tumors were harvested and analyzed for changes to the infiltrating immune cell populations. This was done again at the end point of the study, 4 days after the second dose."}, "4T1 tumors [2]": {"test_system": "4T1 tumors", "assay": "TIL analysis of 4T1 tumors after docetaxel and 01BSUR", "type": "in vivo, mouse", "protocol": "as §1"}, "[3]": {"test_system": "MDA-MB-231Luc2-TdTomato cells", "assay": "Spontaneous human breast cancer metastasis to human bone implants in NOD SCID mice", "type": "in vivo, mouse", "conditions": "for size of bone metastases vs control group: FIG. 4a; for mice with metastasis detected in human bone implants: n=10/group, IL-1Ra 1 mg/kg daily, canakinumab 10 mg/kg s.c. every 14 days from day 7, control 7 out of 10; for tumor cells counted in whole blood: placebo 108 tumor cells/ml", "protocol": "FIG. 4. Pharmacological blockade of IL-1β inhibits spontaneous metastasis to human bone in vivo. Female NOD-SCID mice bearing two 0.5 cm^3 pieces of human femoral bone received intra-mammary injections of MDA-MB-231Luc2-TdTomato cells. […] All animals were culled 35 days following tumour cell injection. Effects on bone metastases (a) were assessed in vivo and immediately post-mortem by luciferase imaging and confirmed ex vivo on histological sections. Data are shown as numbers of photons per second emitted 2 minutes following sub-cutaneous injection of D-luciferin. Effects on numbers of tumour cells detected in the circulation are shown in (b). *=P<0.01, **=P<0.001, ***=P<0.0001.\nTo model human breast cancer metastasis to human bone implants two human bone discs were implanted subcutaneously into 10-week old female NOD SCID mice (n=10/group) under isofluorane anaesthetic. Mice received an injection of 0.003 mg vetergesic and Septrin was added to the drinking water for 1 week following bone implantation. Mice were left for 4 weeks before injecting 1×10^5 MDA-MB-231 Luc2-TdTomato, MCF7 Luc2 or T47D Luc2 cells in 20% Martigel/79% PBS/1% […] into the two hind mammary fat pads. Primary tumor growth and development of metastases was monitored weekly using an IVIS […] system (Caliper Life Sciences) following sub-cutaneous injection of 30 mg/ml D-luciferin (Invitrogen). On termination of experiments mammary tumors, circulating tumor cells, serum and bone metastases were resected. RNA was processed for downstream analysis by real time PCR, and cell lysates were taken for protein analysis and whole tissue for histology as previously described (Nutter et al., 2014; Ottewell et al., 2014a).\n(§2) Tumor cells, serum, and bone were subsequently resected for downstream analysis.\nWhole blood was centrifuged at 10,000×g for 5 minutes and the serum removed for ELISA assays. The cell pellet was re-suspended in 5 ml of FSM lysis solution (Sigma-Aldrich, Pool, UK) to lyse red blood cells. Remaining cells were re-pelleted, washed 3× in PBS and re-suspended in a solution of PBS/10% FCS. Samples from 10 mice per group were pooled prior to isolation of TdTomato positive tumor cells using a MoFlow High performance cell sorter (Beckman Coulter, Cambridge UK) with the […] laser line from a Coherent I-90C tenable argon ion (Coherent, Santa Clara, Calif.). TdTomato fluorescence was detected by a 555LP dichroic long pass and a 580/30 nm band pass filter. Acquisition and analysis of cells was performed using Summit 4.3 software. Following sorting cells were immediately placed in RNA protect cell reagent (Ambion, Paisley, Renfrew, UK) and stored at −80° C. before RNA extraction. For counting numbers of circulating tumor cells, TdTomato fluorescence was detected using a 561 nm laser and an YL1-A filter (585/16 emission filter). Acquisition and analysis of cells was performed using Attune N×T software."}, "CML LSC": {"test_system": "CML LSC", "conditions": "recombinant IL-1RA; cited from earlier work"}, "bone vasculature": {"test_system": "bone vasculature", "assay": "Bone microvasculature after IL-1 blockade in mice (CD34 staining, ELISA for endothelin 1 and VEGF)", "type": "in vivo, mouse", "conditions": "for average length of CD34+ blood vessels in trabecular bone: IL-1Ra in BALB/c nude mice, canakinumab in C57BL/6 mice; for average length of CD34+ blood vessels in trabecular bone / endothelin 1 concentration (ELISA) vs control: p<0.01; for VEGF concentration (ELISA) vs control / endothelin 1 concentration (ELISA) vs control: bone marrow; for VEGF concentration (ELISA) vs control: IL-1R antagonist p<0.01, canakinumab p<0.001", "protocol": "FIG. 7. IL-1β in the bone microenvironment stimulates expansion of the bone metastatic niche. Effects of adding 40 pg/ml or 5 ng/ml recombinant IL-1β to MDA-MB-231 or T47D breast cancer cells is shown in (a) and effects on adding 20 pg/ml, 40 pg/ml or 5 ng/ml IL-1B on proliferation of HS5, bone marrow, or OB1, osteoblasts, are shown in b) and c) respectively. (d) IL-1 driven alterations to the bone vasculature was measured following CD34 staining in the trabecular region of the tibiae from 10-12-week old female IL-1R1 knockout mice. […] Data are shown as mean+/−SEM, *=P<0.01, **=P<0.001, ***=P<0.0001.\nFIG. 8. Suppression of IL-1 signalling affects bone integrity and vasculature. […] Data shown are mean+/−SEM, *=P<0.01, **=P<0.001, ***=P<0.0001 compared with control.\nas §2"}, "mouse IL-1β": {"target": "mouse IL-1β (Mus musculus, UniProt P10749)", "sequence (P10749 118-269)": "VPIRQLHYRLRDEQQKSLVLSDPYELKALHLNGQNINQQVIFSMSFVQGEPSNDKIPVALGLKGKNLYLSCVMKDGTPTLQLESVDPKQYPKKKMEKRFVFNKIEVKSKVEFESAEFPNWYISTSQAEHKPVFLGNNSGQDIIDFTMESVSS", "assay": "Cross-reactivity with mouse IL-1β", "type": "binding"}, "[4]": {"test_system": "high-sensitivity C-reactive protein (hsCRP)", "conditions": "50, 150, 300 mg s.c. every 3 months, dose-dependent; median follow-up 3.7 years; cited from earlier work"}, "interleukin 6": {"test_system": "interleukin 6", "conditions": "50, 150, 300 mg s.c. every 3 months, dose-dependent; median follow-up 3.7 years; cited from earlier work"}, "hsCRP": {"test_system": "hsCRP", "assay": "Gevokizumab clinical hsCRP reduction in type 2 diabetes patients", "type": "in vivo, human", "conditions": "top dose 0.3 mg/kg (~20 mg) Q4W", "source_text": "FIG. 12. Clinical data after gevokizumab treatment (panel a) and its extrapolation to higher doses (panels b, c, and d). Adjusted percent change from baseline in hsCRP in patients in a). The hsCRP exposure-response relationship is shown in b) for six different hsCRP base line concentrations."}, "[5]": {"assay": "Gevokizumab clinical pharmacokinetics", "type": "in vivo, human", "conditions": "subcutaneous administration"}},
  "data": [
    {"compound": "CC(=O)O[C@@]12CO[C@@H]1C[C@H](O)[C@@]1(C)C(=O)[C@H](O)C3=C(C)[C@@H](OC(=O)[C@H](O)[C@@H](NC(=O)OC(C)(C)C)c4ccccc4)C[C@@](O)([C@@H](OC(=O)c4ccccc4)[C@H]21)C3(C)C", "note": "[docetaxel]", "values": [
      {"measurement": "efficacy (tumor growth)", "setting": "LL2", "value": "modest efficacy"},
      {"measurement": "tumor growth vs vehicle/isotype control", "setting": "4T1 tumors [1]", "value": "enhanced"},
      {"measurement": "CD4+ and CD8+ T cells expressing TIM-3 vs control", "setting": "4T1 tumors [2]; 4 days after a second dose", "value": "no change"},
      {"measurement": "granulocytic MDSC in 4T1 tumors", "setting": "4T1 tumors [2]; 5 days after a single dose", "value": "decrease"},
      {"measurement": "monocytes in 4T1 tumors vs vehicle/isotype", "setting": "4T1 tumors [2]; 5 days after a single dose", "value": "decrease"},
      {"measurement": "monocytic MDSC in 4T1 tumors", "setting": "4T1 tumors [2]; 5 days after a single dose", "value": "decrease"},
      {"measurement": "neutrophils in 4T1 tumors", "setting": "4T1 tumors [2]; 5 days after a single dose", "value": "decrease"}
    ]},
    {"compound": "IL-1Ra: recombinant IL-1 receptor antagonist (Anakinra)", "values": [
      {"measurement": "size of bone metastases vs control group", "setting": "[3]", "value": "smaller"},
      {"measurement": "mice with metastasis detected in human bone implants", "setting": "[3]", "value": "4 out of 10"},
      {"measurement": "tumor cells counted in whole blood", "setting": "[3]", "value": 3, "unit": "tumor cells/ml"},
      {"measurement": "growth of CML LSC", "setting": "CML LSC", "value": "inhibited growth"},
      {"measurement": "average length of CD34+ blood vessels in trabecular bone", "setting": "bone vasculature", "value": "reduced"},
      {"measurement": "VEGF concentration (ELISA) vs control", "setting": "bone vasculature", "value": "reduced concentrations"},
      {"measurement": "endothelin 1 concentration (ELISA) vs control", "setting": "bone vasculature", "value": "reduced concentrations"}
    ]},
    {"compound": "canakinumab: high-affinity, fully human monoclonal antibody of the IgG1/k to interleukin-1β (SEQ ID NO:17 and 18)", "values": [
      {"measurement": "size of bone metastases vs control group", "setting": "[3]", "value": "smaller"},
      {"measurement": "mice with metastasis detected in human bone implants", "setting": "[3]", "value": "1 out of 10"},
      {"measurement": "tumor cells counted in whole blood", "setting": "[3]", "value": 3, "unit": "tumor cells/ml"},
      {"measurement": "cross-reactivity with mouse IL-1β", "setting": "mouse IL-1β", "value": "does not cross-react"},
      {"measurement": "average length of CD34+ blood vessels in trabecular bone", "setting": "bone vasculature", "value": "reduced"},
      {"measurement": "VEGF concentration (ELISA) vs control", "setting": "bone vasculature", "value": "reduced concentrations"},
      {"measurement": "endothelin 1 concentration (ELISA) vs control", "setting": "bone vasculature", "value": "reduced concentrations"},
      {"measurement": "reductions in concentrations of hsCRP compared with placebo", "setting": "[4]", "value": "26-41%"},
      {"measurement": "reductions in concentrations of interleukin 6 compared with placebo", "setting": "interleukin 6", "value": "25-43%"}
    ]},
    {"compound": "gevokizumab: high-affinity, humanized monoclonal antibody of the IgG2 isotype to interleukin-1β (SEQ ID NO:19 and 20)", "values": [
      {"measurement": "reduction of hsCRP", "setting": "hsCRP", "value": "up to 45%"},
      {"measurement": "Bioavailability", "setting": "[5]", "value": "about 56%"}
    ]}
  ]
}
